In ChEMBL document CHEMBL1909046, “DrugMatrix in vitro pharmacology data”:

Columns and labels:
[1] = molecular target: 5-hydroxytryptamine receptor 6 (Homo sapiens, UniProt P50406); assay type: cell membranes, HeLa, Membrane; conditions: hela; also: in other assays of this panel Not Active means under 50% inhibition at 10 µM
[2] = molecular target: C-C chemokine receptor type 5 (Homo sapiens, UniProt P51681); assay type: cell membranes, Membrane; conditions: hek293; also: in other assays of this panel Not Active means under 50% inhibition at 10 µM
Sequence of C-C chemokine receptor type 5 (P51681 whole entry): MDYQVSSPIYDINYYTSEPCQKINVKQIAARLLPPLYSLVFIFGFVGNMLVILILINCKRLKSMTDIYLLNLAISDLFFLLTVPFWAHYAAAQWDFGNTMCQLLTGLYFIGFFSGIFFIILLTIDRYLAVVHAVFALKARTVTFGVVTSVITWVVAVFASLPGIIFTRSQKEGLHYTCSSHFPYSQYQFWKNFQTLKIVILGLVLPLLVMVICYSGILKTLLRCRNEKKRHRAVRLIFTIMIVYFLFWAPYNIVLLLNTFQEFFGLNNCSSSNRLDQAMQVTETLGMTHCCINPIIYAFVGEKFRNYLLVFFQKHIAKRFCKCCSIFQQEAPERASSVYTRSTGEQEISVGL

[3] = DRUGMATRIX: GABAA, Muscimol, Central radioligand binding (ligand: [3H] Muscimol); assay type: cell membranes, Rattus norvegicus, Wistar, Brain, Membrane; conditions: Not Active = under 50% inhibition at 10 µM
[4] = molecular target: T1, 3-hydroxy-3-methylglutaryl-coenzyme A reductase (Homo sapiens, UniProt P04035); parameters: species or system Escherichia coli;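 also: enzyme inhibition assay of HMG-CoA reductase using radiolabeled [14C]HMG-CoA as substrate; in other assays of this panel Not Active means under 50% inhibition at 10 µM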
T1 sequence (P04035 whole entry): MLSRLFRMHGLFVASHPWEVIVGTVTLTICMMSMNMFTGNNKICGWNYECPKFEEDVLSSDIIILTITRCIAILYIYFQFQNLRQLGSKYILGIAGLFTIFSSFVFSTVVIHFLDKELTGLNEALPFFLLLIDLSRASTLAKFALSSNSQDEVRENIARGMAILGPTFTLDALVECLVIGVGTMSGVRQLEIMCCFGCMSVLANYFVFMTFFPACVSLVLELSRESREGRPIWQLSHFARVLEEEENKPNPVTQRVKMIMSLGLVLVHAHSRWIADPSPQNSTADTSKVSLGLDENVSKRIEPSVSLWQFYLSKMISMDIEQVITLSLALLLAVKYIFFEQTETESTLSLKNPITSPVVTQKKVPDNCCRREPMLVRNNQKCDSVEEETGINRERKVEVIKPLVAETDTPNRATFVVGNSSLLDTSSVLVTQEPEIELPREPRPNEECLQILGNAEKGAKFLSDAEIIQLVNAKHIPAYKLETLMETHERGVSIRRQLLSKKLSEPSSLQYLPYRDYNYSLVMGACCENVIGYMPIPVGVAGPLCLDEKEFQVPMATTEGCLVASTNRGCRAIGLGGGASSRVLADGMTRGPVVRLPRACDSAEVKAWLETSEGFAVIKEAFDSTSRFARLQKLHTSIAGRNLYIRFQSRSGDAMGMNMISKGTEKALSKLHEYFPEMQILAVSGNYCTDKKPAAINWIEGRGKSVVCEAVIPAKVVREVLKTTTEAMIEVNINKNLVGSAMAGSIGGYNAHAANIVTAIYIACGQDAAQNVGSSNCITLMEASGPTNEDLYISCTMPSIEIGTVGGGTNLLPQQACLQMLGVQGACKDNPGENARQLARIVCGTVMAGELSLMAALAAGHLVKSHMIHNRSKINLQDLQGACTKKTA

Leukotriene C4 synthase = molecular target: T2, Leukotriene C4 synthase (Cavia porcellus, UniProt A6XA80); assay type: tissue-based, Lung;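 also: enzyme inhibition assay of leukotriene C4 synthase, using LTA4 as the substrate; in other assays of this panel Not Active means under 50% inhibition at 10 µM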
T2 sequence (A6XA80 whole entry): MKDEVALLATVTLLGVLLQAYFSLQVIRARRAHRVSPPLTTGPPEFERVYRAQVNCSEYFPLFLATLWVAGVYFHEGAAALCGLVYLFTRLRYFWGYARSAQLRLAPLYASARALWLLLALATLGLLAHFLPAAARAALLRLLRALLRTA

[5] = molecular target: Mitogen-activated protein kinase 1 (Homo sapiens, UniProt P28482); assay: DRUGMATRIX: Protein Serine/Threonine Kinase, ERK2 enzyme inhibition (substrate: Myelin Basic Protein); parameters: species or system Escherichia coli; conditions: Not Active = under 50% inhibition at 10 µM
Sequence of Mitogen-activated protein kinase 1 (P28482 whole entry): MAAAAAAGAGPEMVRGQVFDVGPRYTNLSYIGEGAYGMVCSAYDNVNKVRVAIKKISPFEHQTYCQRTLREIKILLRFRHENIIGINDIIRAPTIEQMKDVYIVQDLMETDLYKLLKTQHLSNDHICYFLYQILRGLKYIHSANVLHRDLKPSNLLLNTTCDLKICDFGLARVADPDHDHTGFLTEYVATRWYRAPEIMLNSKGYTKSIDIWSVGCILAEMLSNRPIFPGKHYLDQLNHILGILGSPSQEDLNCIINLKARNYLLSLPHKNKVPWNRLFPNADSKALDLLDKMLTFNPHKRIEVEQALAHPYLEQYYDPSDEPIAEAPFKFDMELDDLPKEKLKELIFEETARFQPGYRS

Cytochrome P450 2C9 = Cytochrome P450 2C9 (Homo sapiens, UniProt P11712); conditions: bti-tn-5b1-4; also: in other assays of this panel Not Active means under 50% inhibition at 10 µM
Sequence of Cytochrome P450 2C9 (P11712 whole entry): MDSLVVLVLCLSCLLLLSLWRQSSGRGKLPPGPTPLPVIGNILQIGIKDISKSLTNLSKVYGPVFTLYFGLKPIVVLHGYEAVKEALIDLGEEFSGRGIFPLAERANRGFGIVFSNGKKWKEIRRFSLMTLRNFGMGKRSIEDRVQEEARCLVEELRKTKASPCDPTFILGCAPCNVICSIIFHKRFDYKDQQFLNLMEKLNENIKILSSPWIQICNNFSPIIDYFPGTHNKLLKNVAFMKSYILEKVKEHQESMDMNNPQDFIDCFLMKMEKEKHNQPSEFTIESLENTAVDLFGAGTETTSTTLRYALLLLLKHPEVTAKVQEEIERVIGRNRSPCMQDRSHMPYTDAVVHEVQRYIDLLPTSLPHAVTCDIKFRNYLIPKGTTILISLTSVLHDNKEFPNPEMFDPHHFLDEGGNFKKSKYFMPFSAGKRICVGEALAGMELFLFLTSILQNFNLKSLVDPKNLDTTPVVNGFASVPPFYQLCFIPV

Cytochrome P450 2E1 = Cytochrome P450 2E1 (Homo sapiens, UniProt P05181); conditions: bti-tn-5b1-4; also: in other assays of this panel Not Active means under 50% inhibition at 10 µM
Sequence of Cytochrome P450 2E1 (P05181 whole entry): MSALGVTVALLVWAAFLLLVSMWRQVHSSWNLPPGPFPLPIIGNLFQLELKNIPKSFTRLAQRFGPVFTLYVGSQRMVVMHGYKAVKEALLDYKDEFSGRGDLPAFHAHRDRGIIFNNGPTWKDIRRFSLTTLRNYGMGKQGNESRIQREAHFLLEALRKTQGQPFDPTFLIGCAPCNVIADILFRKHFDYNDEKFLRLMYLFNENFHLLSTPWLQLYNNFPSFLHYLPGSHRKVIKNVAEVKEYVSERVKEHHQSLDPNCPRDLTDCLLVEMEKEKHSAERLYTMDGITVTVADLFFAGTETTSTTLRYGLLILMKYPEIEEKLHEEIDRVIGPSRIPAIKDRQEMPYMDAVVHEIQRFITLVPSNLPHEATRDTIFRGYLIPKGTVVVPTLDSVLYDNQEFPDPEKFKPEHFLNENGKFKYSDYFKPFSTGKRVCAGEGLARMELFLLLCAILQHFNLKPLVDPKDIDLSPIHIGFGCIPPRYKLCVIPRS

Sequence of 5-hydroxytryptamine receptor 6 (P50406 whole entry): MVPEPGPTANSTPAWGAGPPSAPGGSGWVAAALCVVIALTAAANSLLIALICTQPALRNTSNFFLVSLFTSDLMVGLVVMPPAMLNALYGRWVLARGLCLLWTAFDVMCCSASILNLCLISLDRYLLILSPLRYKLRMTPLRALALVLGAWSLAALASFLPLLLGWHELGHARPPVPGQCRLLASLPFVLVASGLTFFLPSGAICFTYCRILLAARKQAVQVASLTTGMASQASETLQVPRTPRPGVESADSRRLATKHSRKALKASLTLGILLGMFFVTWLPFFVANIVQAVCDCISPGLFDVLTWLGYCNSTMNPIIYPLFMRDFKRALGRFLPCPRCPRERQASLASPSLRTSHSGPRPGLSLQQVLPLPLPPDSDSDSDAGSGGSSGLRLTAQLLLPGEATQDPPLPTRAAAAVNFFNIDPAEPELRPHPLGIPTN

C[C@]12C=CC(=O)C=C1CC[C@H]1[C@@H]3C[C@@H](O)[C@](O)(C(=O)CO)[C@@]3(C)C[C@H](O)[C@@]12F [TRIAMCINOLONE]
Not Active: IC50 [1] | IC50 [2] | IC50 [3] | Ki [3] | IC50 [4] | IC50 (Leukotriene C4 synthase) | IC50 [5] | IC50 (Cytochrome P450 2C9) | Ki (Cytochrome P450 2C9) | IC50 (Cytochrome P450 2E1) | Ki (Cytochrome P450 2E1)

CC[C@]1(O)C[C@@H]2CN(CCc3c([nH]c4ccccc34)[C@@](C(=O)OC)(c3cc4c(cc3OC)N(C)[C@H]3[C@@](O)(C(N)=O)[C@H](O)[C@]5(CC)C=CCN6CC[C@]43[C@@H]65)C2)C1 [VINDESINE]
Not Active: IC50 [1] | IC50 [2] | IC50 [3] | Ki [3] | IC50 [4] | IC50 (Leukotriene C4 synthase) | IC50 [5] | IC50 (Cytochrome P450 2C9) | Ki (Cytochrome P450 2C9) | IC50 (Cytochrome P450 2E1) | Ki (Cytochrome P450 2E1)

CCN(C(C)=O)c1cccc(-c2ccnc3c(C#N)cnn23)c1 [ZALEPLON]
Not Active: IC50 [1] | IC50 [2] | IC50 [3] | Ki [3] | IC50 [4] | IC50 (Leukotriene C4 synthase) | IC50 [5] | IC50 (Cytochrome P450 2C9) | Ki (Cytochrome P450 2C9) | IC50 (Cytochrome P450 2E1) | Ki (Cytochrome P450 2E1)

COBALTOUS CHLORIDE
Not Active: IC50 [1] | Ki [1] | IC50 [2] | Ki [2] | IC50 [3] | Ki [3] | IC50 [4] | Ki [4] | IC50 (Leukotriene C4 synthase) | Ki (Leukotriene C4 synthase) | IC50 [5] | Ki [5] | IC50 (Cytochrome P450 2C9) | Ki (Cytochrome P450 2C9) | IC50 (Cytochrome P450 2E1) | Ki (Cytochrome P450 2E1)

COLISTIN
Not Active: IC50 [1] | Ki [1] | IC50 [2] | Ki [2] | IC50 [3] | Ki [3] | IC50 [4] | Ki [4] | IC50 (Leukotriene C4 synthase) | Ki (Leukotriene C4 synthase) | IC50 [5] | Ki [5] | IC50 (Cytochrome P450 2C9) | Ki (Cytochrome P450 2C9) | IC50 (Cytochrome P450 2E1) | Ki (Cytochrome P450 2E1)
